Consider 24 compounds from ChEMBL document CHEMBL1201862, “PubChem BioAssay data set” (2004).

Series [1] deals with T1, Aminopeptidase N (Plasmodium falciparum FcB1/Columbia, UniProt O96935).
T1 sequence (O96935 whole entry): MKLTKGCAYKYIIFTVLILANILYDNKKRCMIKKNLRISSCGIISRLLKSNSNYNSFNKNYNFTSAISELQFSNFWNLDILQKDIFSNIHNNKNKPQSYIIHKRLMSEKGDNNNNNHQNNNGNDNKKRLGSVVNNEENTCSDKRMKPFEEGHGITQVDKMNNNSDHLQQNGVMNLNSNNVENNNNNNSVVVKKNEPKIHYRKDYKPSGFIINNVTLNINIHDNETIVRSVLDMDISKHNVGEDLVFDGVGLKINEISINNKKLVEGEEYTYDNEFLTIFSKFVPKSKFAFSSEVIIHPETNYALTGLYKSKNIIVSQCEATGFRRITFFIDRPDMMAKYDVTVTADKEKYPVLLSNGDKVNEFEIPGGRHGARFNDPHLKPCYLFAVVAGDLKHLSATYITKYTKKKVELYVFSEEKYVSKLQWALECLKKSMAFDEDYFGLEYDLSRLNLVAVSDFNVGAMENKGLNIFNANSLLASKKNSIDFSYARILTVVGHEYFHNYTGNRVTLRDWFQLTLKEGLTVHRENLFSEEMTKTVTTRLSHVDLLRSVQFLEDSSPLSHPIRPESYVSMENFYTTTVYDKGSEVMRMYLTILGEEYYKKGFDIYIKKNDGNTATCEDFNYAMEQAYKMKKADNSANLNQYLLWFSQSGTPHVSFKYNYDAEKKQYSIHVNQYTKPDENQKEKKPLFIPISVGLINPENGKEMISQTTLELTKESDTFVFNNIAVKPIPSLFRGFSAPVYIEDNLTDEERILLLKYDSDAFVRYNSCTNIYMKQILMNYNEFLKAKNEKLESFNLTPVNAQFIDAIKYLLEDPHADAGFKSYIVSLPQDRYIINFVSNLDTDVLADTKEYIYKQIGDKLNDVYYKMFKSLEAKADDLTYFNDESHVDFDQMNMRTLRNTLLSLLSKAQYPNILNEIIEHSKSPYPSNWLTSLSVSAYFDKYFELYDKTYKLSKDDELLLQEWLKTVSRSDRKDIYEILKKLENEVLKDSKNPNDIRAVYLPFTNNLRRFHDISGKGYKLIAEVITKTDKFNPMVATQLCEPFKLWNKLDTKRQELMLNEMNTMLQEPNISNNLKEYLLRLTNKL
The series can be described thus: malaria alanyl aminopeptidase activity blockers – biochemical, fluorogenic H-Leu-NHMec substrate, 1536-well (AID 1445). Details: species or system Plasmodium falciparum 3D7, 3D7.

Series [2] addresses Cytochrome P450 2C19 (Homo sapiens, UniProt P33261). The series can be described thus: Cytochrome panel assay with activity outcomes. Panel member name: p450-cyp2c19 Compounds with AC50 equal or less than 10 uM are considered active. The series is classed as functional.
Series [3] has as its target T2, High affinity choline transporter 1 (Homo sapiens, UniProt Q9GZV3).
T2 sequence (Q9GZV3 whole entry): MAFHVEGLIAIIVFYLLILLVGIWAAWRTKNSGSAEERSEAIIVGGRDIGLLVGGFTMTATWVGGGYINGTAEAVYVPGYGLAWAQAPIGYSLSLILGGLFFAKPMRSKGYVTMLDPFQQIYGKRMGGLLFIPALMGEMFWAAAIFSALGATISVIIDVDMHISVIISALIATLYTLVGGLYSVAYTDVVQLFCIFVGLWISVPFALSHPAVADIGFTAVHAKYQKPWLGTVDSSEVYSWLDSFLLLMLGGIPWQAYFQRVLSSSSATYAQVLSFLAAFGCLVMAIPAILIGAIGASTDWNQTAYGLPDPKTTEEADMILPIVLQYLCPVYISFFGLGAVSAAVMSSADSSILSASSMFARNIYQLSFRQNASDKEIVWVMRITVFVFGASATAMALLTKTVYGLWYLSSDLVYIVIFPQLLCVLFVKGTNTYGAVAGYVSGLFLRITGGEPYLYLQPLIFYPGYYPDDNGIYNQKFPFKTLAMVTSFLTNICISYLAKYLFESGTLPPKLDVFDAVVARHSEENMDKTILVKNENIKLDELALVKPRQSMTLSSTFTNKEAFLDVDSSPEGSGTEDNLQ
Description: human choline transporter blockers, potency – cell-based, 5-point CRC, membrane potential dye, dose response (AID 504840). The series is classed as functional.

In series [4] the test system is H9c2. Description: cells. Format: functional, cell-based. Conditions: Rattus norvegicus, H9c2, Myocardium.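 Further: confirmatory concentration-response retest of ultra-high-throughput screening hits for modulation of myocardial damage; cell death induced by hydrogen peroxide oxidative stress; compound pretreatment for 60 min then peroxide exposure for 2 h; potency is for protecting the cells against peroxide damage rather than for killing them.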
Series [5] in a line: HIV-1 AD8 envelope cell-cell fusion blockers – cherry-pick, dose response (AID 652062).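 Further: luciferase signal from cell-cell fusion driven by HIV-1 clade B AD8 Env; potency is for inhibitors of fusion seen as a drop in luminescence.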 Format: functional, cell-based.
Series [6] in a line: off-target signal loss in HeLa-CEM21 co-culture – HeLa F-luc CTL cells, cherry-picked, counter-screen for HIV-1 Env fusion inhibitor project, dose response (AID 652040).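 Further: potency for signal decrease marking cytotoxic or nonspecific inhibition.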 Format: functional, cell-based. (In general: A counterscreen serves to expose hits that act by an unwanted route or on another target.)
Series [7] is described as follows: blockers of HIV-1 ZM109 envelope-driven cell-cell fusion – HeLa effector, CEM target cells, luciferase, cherry-pick, dose response (AID 652058).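 Further: luciferase signal from HIV-1 Env mediated cell-cell fusion of effector and target cells.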 The series is classed as functional, cell-based.
Series [8] can be described thus: blockers of HIV-1 envelope-mediated cell-cell fusion – cherry-pick, dose response (AID 652057). Format: functional, cell-based.
For series [9], the target named is Paired box protein Pax-8 (Homo sapiens, UniProt Q06710). Description: PAX8 transcriptional activity inhibition in RMG-I – RMG-I cells, luciferase, cherry-pick, dose response (AID 687027).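 Further: luciferase reporter driven by Pax8 target thyroperoxidase promoter measured by SteadyGlo luminescence.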 Format: functional, cell-based.
Series [10] deals with T3, Caspase-6 (Homo sapiens, UniProt P55212).
T3 sequence (P55212 whole entry): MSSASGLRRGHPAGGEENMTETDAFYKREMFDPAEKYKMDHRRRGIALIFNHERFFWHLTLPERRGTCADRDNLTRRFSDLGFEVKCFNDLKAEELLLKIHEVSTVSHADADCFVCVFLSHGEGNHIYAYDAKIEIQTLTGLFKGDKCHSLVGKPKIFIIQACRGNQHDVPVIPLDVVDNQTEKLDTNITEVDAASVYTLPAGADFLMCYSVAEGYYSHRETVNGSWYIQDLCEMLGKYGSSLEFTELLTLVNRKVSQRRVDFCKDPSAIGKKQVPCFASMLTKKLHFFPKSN
Description: inhibition of CASP6 peptide cleavage – biochemical, VEID-R110 fluorescence, cherry-pick, dose response (AID 720632).

The target of series [11] is T4, Ubiquitin-conjugating enzyme E2 N (Homo sapiens, UniProt P61088).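 Further: Dose-response confirmation in a TR-FRET assay detecting UBC13-driven polyubiquitin chain formation, inhibition measured.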
T4 sequence (P61088 whole entry): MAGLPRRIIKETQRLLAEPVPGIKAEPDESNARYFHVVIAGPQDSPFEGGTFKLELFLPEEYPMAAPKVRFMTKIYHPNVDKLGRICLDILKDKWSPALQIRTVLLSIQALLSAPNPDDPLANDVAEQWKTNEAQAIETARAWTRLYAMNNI
Format: functional.

Series [12] can be described thus: intracellular Trypanosoma cruzi inhibitors in host cells – cell-based, plate reader, cherry-pick samples, set 3, dose response (AID 651818).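 Further: compounds incubated with infected cells for about four days.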 Format: functional.
The target of series [13] is T5, Corticotropin-releasing factor receptor 2/Corticotropin-releasing factor-binding protein (Homo sapiens, UniProt P24387+Q13324).
T5 sequence (Q13324 whole entry): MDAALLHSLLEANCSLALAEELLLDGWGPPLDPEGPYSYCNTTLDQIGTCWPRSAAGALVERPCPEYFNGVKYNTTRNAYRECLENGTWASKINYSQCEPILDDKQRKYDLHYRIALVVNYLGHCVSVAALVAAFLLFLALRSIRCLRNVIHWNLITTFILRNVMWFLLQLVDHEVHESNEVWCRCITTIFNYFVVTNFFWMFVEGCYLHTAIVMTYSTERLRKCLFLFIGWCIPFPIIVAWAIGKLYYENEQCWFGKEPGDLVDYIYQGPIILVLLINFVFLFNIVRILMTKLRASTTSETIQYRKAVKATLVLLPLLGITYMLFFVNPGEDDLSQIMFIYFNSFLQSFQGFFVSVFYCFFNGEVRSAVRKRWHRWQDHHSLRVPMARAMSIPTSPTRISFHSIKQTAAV
T5 sequence (P24387 whole entry): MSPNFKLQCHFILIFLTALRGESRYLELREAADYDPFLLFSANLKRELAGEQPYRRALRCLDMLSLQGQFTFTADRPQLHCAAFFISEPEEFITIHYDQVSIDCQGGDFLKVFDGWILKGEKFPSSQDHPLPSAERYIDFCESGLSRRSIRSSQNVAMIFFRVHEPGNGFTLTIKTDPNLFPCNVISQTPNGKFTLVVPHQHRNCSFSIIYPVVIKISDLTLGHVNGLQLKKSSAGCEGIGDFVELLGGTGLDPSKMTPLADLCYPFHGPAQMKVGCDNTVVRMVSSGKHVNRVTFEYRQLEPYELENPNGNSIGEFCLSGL
The series can be described thus: Dose Response confirmation of uHTS hits for small molecule antagonists of the CRF-binding protein and CRF-R2 receptor complex. Format: functional. Conditions: read-out: IC50_Mean.

The target in series [14] is T5, Corticotropin-releasing factor receptor 2/Corticotropin-releasing factor-binding protein. Description: activators of CRF receptor 2 with binding protein – uHTS hits, confirmation (AID 602473). The note with it: read-out: EC50_Mean. Format: functional.

Active and inactive are the calls of the source.

Paired box protein Pax-8, sequence (Q06710 whole entry): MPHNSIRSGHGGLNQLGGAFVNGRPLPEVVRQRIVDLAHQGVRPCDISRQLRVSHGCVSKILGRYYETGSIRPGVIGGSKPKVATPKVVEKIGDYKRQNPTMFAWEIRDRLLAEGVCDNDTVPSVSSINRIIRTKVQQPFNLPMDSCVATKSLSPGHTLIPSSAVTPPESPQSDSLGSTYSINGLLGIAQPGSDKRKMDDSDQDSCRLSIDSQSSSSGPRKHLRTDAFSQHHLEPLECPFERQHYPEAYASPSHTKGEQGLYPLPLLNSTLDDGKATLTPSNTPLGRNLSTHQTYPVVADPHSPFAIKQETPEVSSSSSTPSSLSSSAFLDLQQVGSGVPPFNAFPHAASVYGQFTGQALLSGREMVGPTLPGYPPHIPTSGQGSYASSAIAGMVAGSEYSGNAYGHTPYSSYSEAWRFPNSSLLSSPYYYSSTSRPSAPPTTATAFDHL
Cytochrome P450 2C19, sequence (P33261 whole entry): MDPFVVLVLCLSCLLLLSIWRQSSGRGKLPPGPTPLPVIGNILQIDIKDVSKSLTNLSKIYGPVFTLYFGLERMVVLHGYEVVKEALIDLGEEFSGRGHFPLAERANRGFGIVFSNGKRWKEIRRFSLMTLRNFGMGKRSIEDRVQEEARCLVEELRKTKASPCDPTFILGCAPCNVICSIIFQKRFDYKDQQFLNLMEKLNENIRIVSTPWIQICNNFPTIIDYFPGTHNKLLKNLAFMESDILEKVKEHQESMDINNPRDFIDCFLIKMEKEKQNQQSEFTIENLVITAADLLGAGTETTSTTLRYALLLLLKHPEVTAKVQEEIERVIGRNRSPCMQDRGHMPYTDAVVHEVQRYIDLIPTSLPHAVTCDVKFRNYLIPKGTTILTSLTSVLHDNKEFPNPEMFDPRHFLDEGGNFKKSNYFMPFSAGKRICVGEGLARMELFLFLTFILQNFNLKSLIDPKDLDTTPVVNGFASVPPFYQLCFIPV

Regarding `Cc1ccc(S(=O)(=O)N(NC2=NS(=O)(=O)c3ccccc32)C(=O)c2ccccc2)cc1`, the IC50 in series [1] is 46.8 µM (active).

The AC50 is the midpoint of the concentration-response curve, whichever way the signal moves. Consider `CCOc1nc(N=C(N)N)nc2c(C)cccc12`, for which, in series [2], the AC50 entry is reported as “inconclusive”. For the same compound, in [1], the IC50 was 7.38 µM (active).

In the case of `c1ccc(CCCCN2C(Nc3ccccc3)=NC[C@@H]2Cc2ccccc2)cc1`, the IC50 in series [3] is 12 µM (active).

For `C[n+]1ccccc1COc1ccc(C(C)(C)C)cc1`, the IC50 in series [3] is 13.8 µM (active).

For the compound `CCC(C)(C)n1nnnc1C(c1ccc2ncccc2c1)N1CCN(c2nc3ccccc3s2)CC1` (stereo unspecified), in [1], the IC50 was 51.1 µM (active).

Regarding `CCc1cc(=O)oc2c(CN3CCN(C)CC3)c(O)c(Cl)cc12`, in series [1], the IC50 is 35.9 µM (active).

Take `CN(C)C(=O)c1ccc(-c2nnc(O)c3ccccc23)cc1`: in [4], the IC50 was > 79 µM (inactive).

With `COc1ccc(C(C(=O)NC2CCCCC2)N(C(=O)c2ccco2)c2ccccc2C(C)=O)cc1OC` (stereo unspecified), the IC50 in series [3] was 2 µM (active).

For the compound `OCC[C@@H]1C[C@@H](O)[C@H](O)[C@]2(OCc3ccccc32)O1`, the half-maximal activity concentration (AC50) was 27.2 µM (active) in [5] and 28.2 µM (active) in series [6].

As to `CC(=O)c1cccc(-c2cnc3c(NC=O)cc(-c4cccc(C(=O)N(C)C)c4)cn23)c1`, in series [4], the IC50 is > 79 µM (inactive).

As for `CC1CCCCN1CCNC(=O)CN1C(=O)CSc2ccc(S(=O)(=O)N3CCCCC3)cc21` (stereo unspecified), the IC50 in series [3] is 12.9 µM (active).

As to `O=C(Cc1ccc(S(=O)(=O)N2CCOCC2)s1)N1CCN(S(=O)(=O)c2ccc(Cl)cc2)CC1`, the AC50 in series [5] was 28.2 µM (active); in series [7], 7.93 µM (active); in [6] it was 14.1 µM (active); in [8], 7.03 µM (active).

Take `COc1ccc(-c2cnc3c(NC=O)cc(-c4cccc(NS(C)(=O)=O)c4)cn23)cc1OC`: the IC50 in [4] was > 79 µM (inactive). Further, in series [9], the concentration at half-maximal activity (AC50) is 5.09 µM (active).

For `C/C(=N\Nc1ccc(C(=O)O)cc1)c1ccc(Br)cc1`, the concentration at half-maximal activity (AC50) in [10] is 7.07 µM (active).

Regarding `COc1ccccc1NS(=O)(=O)c1cccc(C(=O)N/N=C/c2c(CO)cnc(C)c2O)c1`, the IC50 in [4] was > 79 µM (inactive); in series [11] it was > 20 µM (inactive).

`C[C@H](CO)N1C[C@H](C)[C@H](CN(C)C(=O)Nc2ccc(F)cc2)Oc2c(NC(=O)c3ccncc3)cccc2C1=O`: in [12], the AC50 was 2.08 µM (active).

For the compound `Cc1ccc(S(=O)(=O)Nc2ccc3c(c2)C(=O)N([C@H](C)CO)C[C@H](C)[C@@H](CN(C)C(=O)Nc2ccc(C(F)(F)F)cc2)OCCCC[C@@H](C)O3)cc1`, in series [12], the AC50 was 4.82 µM (active).

Regarding `Cc1ccc(S(=O)(=O)N(C)C[C@H]2Oc3c(NC(=O)c4nc5ccccc5s4)cccc3C(=O)N([C@@H](C)CO)C[C@@H]2C)cc1`, the concentration at half-maximal activity (AC50) in [12] was 1.09 µM (active).

Regarding `C[C@@H]1CN([C@@H](C)CO)C(=O)c2cccc(NC(=O)Nc3ccc(F)cc3)c2O[C@@H]1CN(C)Cc1ccc(C(=O)Nc2ccccc2N)cc1`, the AC50 in [12] is 3.68 µM (active).

Regarding `C[C@@H]1CN([C@H](C)CO)C(=O)Cc2cc(NS(=O)(=O)c3ccc(F)cc3)ccc2O[C@@H]1CN(C)Cc1ccc(-c2ccccc2)cc1`, the AC50 in series [12] was 3.2 µM (active).

On to `C[C@@H]1CN([C@@H](C)CO)C(=O)c2cccc(NS(=O)(=O)c3ccc(Cl)cc3)c2O[C@H]1CN(C)Cc1ccc(C(=O)Nc2ccccc2N)cc1`, for which the AC50 in series [12] is 2.53 µM (active).

For the compound `CC1CCN(C(=O)c2ncn3c2C(=O)N[C@@H](C)C3)CC1`, the AC50 in series [5] was 9.91 µM (active); in [7], 9.53 µM (active); in series [6], 7.15 µM (active); in series [8], 1.94 µM (active).

As to `O=C(N/N=C/c1ccccn1)c1cccs1`, the IC50 in series [13] was > 47.1 µM (inactive); in series [4], > 79 µM (inactive). The EC50 in series [14] was > 53 µM (inactive).

As to `Cn1/c(=N/CC(O)COc2ccccc2)sc2ccccc21` (stereo unspecified), the IC50 in [3] is 13.5 µM (active).
